Measured values from patent US20220243210A1, “ANGIOTENSIN II TYPE 1 RECEPTOR TARGETED OLIGONUCLEOTIDES AND USES THEREOF” (Ionis Pharmaceuticals, Inc., priority 2019, published 2022).
Oligonucleotides are written 5' to 3', each unit as a sugar letter and its base; * is a phosphorothioate linkage, no mark a phosphodiester; rarer units and linkages stand in square brackets, end groups in braces. Plain capitals give the bases only. {Cy3} = Cy3 fluorescent dye label; k = constrained ethyl (cEt); [5mC] = 5-methylcytosine; d = 2'-deoxy (DNA)

Test system: mouse MALAT RNA
Test: MALAT RNA reduction in vivo, C57BL6/J mice, with or without Losartan pretreatment
Settings: no Losartan, sacrifice 4 days after dose
Procedure: Compound Nos. 1213287 and 1295887 are described in Table 1 above. Compound Nos. 1213287 and 1295887 were tested in C57BL6/J mice with or without pretreatment with the AGTR1 antagonist, Losartan. The mice were divided into groups of 3 mice each. Mice receiving Losartan were treated with 150 mg/L in the drinking water for 10 days. Each mouse received a single IV dose on day 10 of either Compound No. 1213287 or 1295887 of either 1.2 or 3.6 μmol/kg. The mice were then sacrificed on day 14. Heart, adipose, adrenal, kidney, and liver tissue was then collected and homogenized and RNA analysis was performed. A group of 4 mice received PBS as a negative control.
RNA was extracted from heart, adipose, adrenal, kidney, and liver tissue for real-time PCR analysis of measurement of RNA expression of MALAT using primer probe set mMALAT1 #2 (forward sequence […] (SEQ ID NO: 5); reverse sequence […] (SEQ ID NO: 6); probe sequence […] (SEQ ID NO: 7)). Results are presented as percent change of RNA, relative to PBS control, normalized to mouse GAPDH.

“Compound No. 1213287: Control unconjugated 19-nucleotide modified oligonucleotide TCAGCATTCTAATAGCAGC with a 3′ Cy3 label (antisense dTd[5mC]dAkG*k[5mC]*kA*dT*dT*d[5mC]*dT*dA*dA*dT*dA*dG*d[5mC]*kA*kG*k[5mC]-{Cy3}) [reference compound]” was tested, and the “MALAT RNA (% control)” value (Adipose, single IV 1.2 μmol/kg) was 78.0 % control, the “MALAT RNA (% control)” value (Adipose, single IV 3.6 μmol/kg) was 53.0 % control and the “MALAT RNA (% control)” value (Adrenal, single IV 1.2 μmol/kg) was 78.7 % control. The “MALAT RNA (% control)” value (Adrenal, single IV 3.6 μmol/kg) was 50.0 % control, the “MALAT RNA (% control)” value (Heart, single IV 1.2 μmol/kg) was 77.0 % control and the “MALAT RNA (% control)” value (Heart, single IV 3.6 μmol/kg) was 57.3 % control. For the same substance, the “MALAT RNA (% control)” value (Kidney, single IV 1.2 μmol/kg) was 58.3 % control, the “MALAT RNA (% control)” value (Kidney, single IV 3.6 μmol/kg) was 42.3 % control and the “MALAT RNA (% control)” value (Liver, single IV 1.2 μmol/kg) was 53.7 % control. The “MALAT RNA (% control)” value (Liver, single IV 3.6 μmol/kg) was 35.0 % control.
